Results: patent US11021507B2, “Myricetin derivative and preparing method thereof, and application of same for treating colitis, preventing and treating colitis tumorigenesis, and treating colorectal cancer” (MARINE BIOMEDICAL RESEARCH INSTITUTE OF QINGDAO CO., LTD., priority 2016, dated 2021)

Experiments:
[1] = Water solubility test (equilibrium solubility in pure water, LC/MS); type: physicochemical; conditions: 37° C.
Procedure: Water solubility test for myricetin derivative M5, M6 and M10
Instrument: Waters Alliance e2695 LC/MS; chromatographic column: Waters×Bridge C18 4.6×150 mm.
Appropriate amount of said myricetin derivative was weighed and dissolved in methanol to prepare a solution of 1 mg/ml respectively, which was diluted with methanol to different concentrations of working solution as standard samples for testing.
2. 1 mL of ultrapure water was added into a 1.5 ml transparent EP tube. Appropriate amount of said myricetin derivative was each added into a transparent EP tube, followed by vortex mixation and ultrasonication till the drug was no longer dissolved (the solution appeared cloudy or had suspended particles). The mixture was then placed in an incubating oscillator for shaking at the temperature of (37±1) ° C., 100 r/min, for 24 hours, to achieve a sufficient solubility balance. 24 hours later, the saturated solution was taken out for centrifugation at 3000 r/min for 15 min. The supernatant was immediately filtered through a 0.45 μm microporous membrane, and the initial part of the filtrate was discarded. Samples were added for chromatography. The peak area was measured and the equilibrium solubility of each compound in pure water was calculated using a standard curve.

KM mice = assay: Acute toxicity experiment, maximum tolerated dose in mice; type: in vivo
Procedure: Acute Toxicity Experiment on Myricetin Derivative M10, Testing Maximum Tolerated Dose in Mice.
Animal germ line: KM mice
The KM mice with quarantine conformity were selected for the experiment. 10 mice weighing 18 g-22 g each after fasting were randomly selected, labeled and housed in separate cages.
In accordance with the acute toxicity testing method in Healthy Food Inspection and Evaluation Technical Specifications (2003 edition), sample solutions were prepared and administered twice intragastrically within 24 hours with the maximum dose of 20 mL/kg. Mice were monitored 1, 4, 8, 24, 48, 72, 96, 120, 144, 168 and 336 hours respectively after drug administration, and the maximum tolerable dose in mice was calculated if no mouse died.

[2] = tested on: azomethane (AOM)/dextran sulfate sodium (DSS)-induced chronic ulcerative colitis and inflammation-associated tumorigenesis; assay: AOM/DSS-induced chronic ulcerative colitis and inflammation-associated tumorigenesis in mice; type: in vivo, C57BL/6 mice
From the text: Determination of therapeutic effect of myricetin derivative M10 on azomethane (AOM)/dextran sulfate sodium (DSS)-induced chronic ulcerative colitis and inflammation-associated tumorigenesis.
Compound tested and control drugs: myricetin derivative M10, control compound myricetin, aspirin (Sigma).
Experimental animals: C57BL/6 mice, 20 to 22 g, both male and female, SPF grade provided by Beijing Vital Lihua Experimental Animal Company, and mice were fed with standard animal feed.
Animal models of AOM/DSS-induced chronic colitis and inflammation-associated tumorigenesis: 48 C57BL/6 mice were randomly divided into six groups with eight mice in each group, including model group, for which 0.5% CMC-Na was administered intragastrically every day; aspirin group, for which 100 mg/kg of aspirin (dissolved in 0.5% CMC-Na) was administered intragastrically; myricetin control group, for which 100 mg/kg of myricetin (dissolved in 0.5% CMCNa) was administered intragastrically; M10 high dose group, for which 100 mg/kg of M10 (dissolved in pure water) was administered intragastrically; M10 medium dose group, for which 50 mg/kg of M10 (dissolved in pure water) was administered intragastrically; M10 low dose group, for which 25 mg/kg of M10 (dissolved in pure water) was administered intragastrically.
Preparation of chronic ulcerative colitis mice model: said groups of mice were intraperitoneally injected with 10 mg/kg of azoxymethane (AOM) on day one. Purified drinking water containing 2% dextran sulfate sodium (DSS) was freshly made and provided on day one and on the next six consecutive days, the replaced by purified drinking water for the next seven consecutive days. The above procedure was then repeated for 3 more times.
M10-treated group: 200 mg of M10 was weighed and dissolved in 10 mL of 0.5% CMC-Na solution (20 mg/mL), and consecutively diluted 2 times and 5 times for future use. 0.2 mL of each prepared solutions was given intragastrically to mice (the body weight was assumed as 20 g per mouse), namely divided into high, medium or small dose groups. Myricetin control group: 200 mg of myricetin was weighed and dissolved in 10 mL of 0.5% CMC-Na. Aspirin-treated group: 200 mg of aspirin was weighed and dissolved in 10 mL of 0.5% CMC-Na. Administration method: The body weight of mice was measured daily, and drugs were administered at 0.01 mL/g (100 mg/kg) per day for 12 consecutive weeks. 4. Animal observation and treatment methods: weight, diet, diarrhea (or bloody stools) etc. were observed daily.
At the end of the experiment, mice were sacrificed. The colon and small intestine were dissected out for visual observation and pathological analysis. Pathological examination methods and evaluation criteria: the mice colons of each group were fixed with 10% formalin, followed by routine paraffin embedding, sectioning and HE staining. The developmental degree of colonic inflammation and colon cancer in each group of mice was evaluated under microscopic observation.

[3] = tested on: signaling molecules ATG3, ATG5, ATG7, ATG12, and ATG1611; assay: Cellular autophagy caused by AOM/DSS-induced endoplasmic reticulum stress in colonic epithelial cells (FIG. 10); type: in vivo, C57BL/6 mice
From the text: FIG. 10 illustrates the mechanism of M10 in inhibiting cellular autophagy and colonic epithelial cell proliferation and carcinogenesis caused by AOM/DSS-induced endoplasmic reticulum stress in Example 13;

[4] = tested on: endoplasmic reticulum stress signaling molecules GRP78, ATF6, PelF-2a and IREa; assay: AOM/DSS-induced endoplasmic reticulum stress in mouse colon (FIG. 9); type: in vivo, C57BL/6 mice
From the text: FIG. 9 illustrates the mechanism of M10 in inhibiting endoplasmic reticulum stress induced by AOM/DSS in Example 13;

## O=c1c(O[C@@H]2O[C@H](CO)[C@@H](O[C@@H]3O[C@H](CO)[C@H](O)[C@H](O)[C@H]3O)[C@H](O)[C@H]2O)c(-c2cc(O)c(O)c(O)c2)oc2cc(O)cc(O)c12 [M10]
[1]; 24 h, per Table 2
  Solubility (in words): excellent solubility
[1]; ultrapure water, thermodynamic from solid
  solubility at 24 h: > 100 mg/mL
KM mice; administered twice intragastrically within 24 hours, 0.02 mL/g, 250 mg/mL, 14 days observation
  Maximum tolerable dose in mice: more than 5 g/kg
KM mice; fourteen days observation
  Toxicity during whole observation period: no obvious toxicity
KM mice; mouse, in vivo
  Death: No death
[2]; 100 mg/kg aspirin or myricetin, M10 25-100 mg/kg, 12 weeks, FIG. 8
  Pathological analysis of colon tissue (colon cancer): significant activity of preventing and treating colon cancer
[2]; M10 25, 50 and 100 mg/kg intragastrically, 12 weeks
  Symptoms of AOM/DSS-induced chronic colitis (body weight loss, loose stools, blood in stool): significantly alleviated
[2]; all doses (25, 50, 100 mg/kg), after 12 weeks, FIG. 6 and FIG. 7
  Number of colon tumor nodules: significantly reduced
[2]; intragastric, 12 weeks, week 10 to 12, FIG. 4
  Loss of body weight induced by AOM/DSS: significantly prevented
[3]; FIG. 10A
  Autophagic vacuoles in colonic epithelial cells with mitochondrial swelling: significantly alleviated
[3]; FIG. 10B
  Activation of signaling molecules ATG3, ATG5, ATG7, ATG12 and ATG1611: significantly inhibited
[4]; FIG. 9A
  Swollen endoplasmic reticulum membrane, irregular fracture arrangement: significantly alleviated
[4]; FIG. 9B
  Activation of stress signaling molecules GRP78, ATF6, PelF-2a and IREa: significantly inhibited
